For data set [1] the following is noted: cited from earlier work. From the text:
(§1) A possible alternative solution for control of V. destructor is venom-derived acaricidal peptides. Venomous arachnids such as spiders and scorpions prey on arthropods, including other arachnids[17]–[19]. It is therefore unsurprising that the wide-spectrum insecticidal spider-venom peptide ω-hexatoxin-Hv1a (hereafter Hv1a) is also acaricidal. […] It therefore seems plausible that within the venoms of >53,000 extant spider[23] and >2,800 extant scorpion species, each comprising hundreds to thousands of p ...

The test system of the next data set is honeybees. The conditions noted are these: cited from earlier work.
From the text: as §1

For the next data set, the system named is mammals. The conditions noted are these: cited from earlier work.
From the text: as §1

Another data set concerns V. destructor mites. The data set can be described thus: Topical application of synthetic peptides and oxalic acid to V. destructor mites. In kind it is in vivo, Varroa destructor. The conditions noted are these: 3% oxalic acid, positive control. As for the experimental part: An outline of the project discovery pipeline is presented in Supplementary Fig. 1. To identify varroacidal venom peptides, we screened venoms for activity against V. destructor by topical application. Topical tests were performed in several stages. First, whole venom was tested to determine mortality for V. destructor. Hit venoms were then subjected to several fractionation steps to isolate the active compounds. For the initial venom screen, a panel of 50 arthropod venoms (Table 1) were topically applied to V. destructor mites. Venoms were dissolved in 90% acetonitrile (v/v), and a 10 μg venom aliquot was applied per mite (n = 5 mites per venom). The dorsal plate of V. destructor mites (average mass 0.38 mg) was fixed to adhesive tape (ScotchTM 666 3 M; 19 × 32.9 mm, double sided) on microscope slides (ground edges 90° frosted end, 76 × 26 mm). A Nanoject II (Automatic Injector with Glass Capillaries, Drummond Cat.No. 3-000-205 A) was used for topical application of venom and control (90% acetonitrile) solutions. To accelerate solvent evaporation, the total volume of 483 nL was applied in seven aliquots of 69 nL each to the ventral plate of the mites between the posterior pair of legs. Each drop was allowed to dry before applying the next one, with the entire application procedure taking up to 1 h. Mite mortality was determined at various time intervals up to 48 h after the treatment using an Olympus stereomicroscope (SZX10/SZX2 Series). Initially, each mite was examined for movements of the legs, and immobile mites were stimulated with the tip of a wooden toothpick. Detection of static electricity by the mites, a few millimetres before the actual contact with the toothpick, was usually sufficient to trigger movement in mites that were still alive. […] At the later stage of the project, the slides with mites were placed into a self-constructed automated video monitoring system (using a USB camera) that employs an algorithm in OpenCV to subtract images from subsequent frames enabling the detection of changes in pixel intensity due to movements, for example of the extremities. Leg movements were stimulated with an air current applied over the mites at the time of image acquisition to determine mite mortality. The percentage of mite mortality for each venom was calculated at 2, 6 and 24 h, and adjusted by correcting for the mortality of the corresponding control group receiving only 90% acetonitrile.
The same procedure initially used for identifying varroacidal venoms was used for testing the topical activity of sHt1a and sGg1a. The peptides were dissolved in 0.5% Silwet L-77 (v/v), a silicone-based surfactant that is commonly used as a spreading agent for foliar sprays. 0.48 μg of peptide was topically applied to each mite, with n = 5 mites per treatment group. The activity of the sHt1a was confirmed using three cohorts of n = 5 mites, whereas the activity of sGg1a was confirmed using four cohorts of n = 5 mites. As a negative control, an equal volume of 0.5% Silwet (v/v) was topically applied (four cohorts of n = 5 mites), and 3% oxalic acid, a known varroacide used in commercial products[10] was used as positive control (eight cohorts of n = 5 mites). Mite mortality was recorded at 2-hourly intervals between 0 and 48 h after the treatment. For statistical analysis, mite survival data were plotted in Prism 10.0 (GraphPad Software, CA, USA), then a two-way ANOVA followed by Dunnett’s multiple comparisons test was performed, comparing the peptide and oxalic acid treatment against the respective 0.5% Silwet (v/v) control group data.

This is an account of results in article PMC13233288, “Spider venom peptides Ht1a and Gg1a are toxic to honeybee parasite Varroa destructor by topical application” (npj Drug Discovery, 2026).

With ω-hexatoxin-Hv1a, in data set [1], the acaricidal activity entry was “acaricidal”. Further, the activity against honeybees entry in the data set on honeybees was “inactive”. The activity against mammals result in the data set with mammals was “inactive”.
Regarding `O=C(O)C(=O)O` [oxalic acid, reference compound], the “time to significant mortality” value in the data set with V. destructor mites (eight cohorts of n = 5 mites) is on record as 2 h. For the same compound, in the data set on V. destructor mites (vs 0.5% Silwet group, two-way ANOVA, Dunnett), the “survival of V. destructor” value was “significantly reduced V. destructor survival”.
